The subject of one series is Botrytis cinerea. The series is described as follows: Example A: in vivo preventive test on Botrytis cinerea (grey mould). As to conditions: gherkin plants, preventive spray, evaluated 4 to 5 days after inoculation. As to the method:
The young plants of gherkin are treated by spraying the active ingredient prepared as described above. Control plants are treated only with an aqueous solution of acetone/Dimethyl sulfoxide/Tween®. After 24 hours, the plants are contaminated by spraying the leaves with an aqueous suspension of Botrytis cinerea spores.

The subject of another series is Puccinia recondita. The series is described as follows: Example B: in vivo preventive test on Puccinia recondita (brown rust on wheat). As to conditions: wheat plants, preventive spray, evaluated 11 days after inoculation. As to the method:
The young plants of wheat are treated by spraying the active ingredient prepared as described above. Control plants are treated only with an aqueous solution of acetone/Dimethyl sulfoxide/Tween®. After 24 hours, the plants are contaminated by spraying the leaves with an aqueous suspension of Puccinia recondita spores.

The subject of another series is Pyrenophora teres. The series is described as follows: Example C: in vivo preventive test on Pyrenophora teres (net blotch on barley). As to conditions: 500 ppm of active ingredient; barley plants, preventive spray; evaluated 14 days after inoculation. The procedure: The young plants of barley are treated by spraying the active ingredient prepared as described above. Control plants are treated only with an aqueous solution of acetone/Dimethyl sulfoxide/Tween®. After 24 hours, the plants are contaminated by spraying the leaves with an aqueous suspension of Pyrenophora teres spores.

The subject of another series is Septoria tritici. The experiment in a line: Example D: in vivo preventive test on Septoria tritici (leaf spot on wheat). As to conditions: wheat plants, preventive spray, evaluated 24 days after inoculation. As to the method: The young plants of wheat are treated by spraying the active ingredient prepared as described above. Control plants are treated only with an aqueous solution of acetone/Dimethyl sulfoxide/Tween®. After 24 hours, the plants are contaminated by spraying the leaves with an aqueous suspension of Septoria tritici spores.

The test system of the next series is Sphaerotheca fuliginea. The experiment in a line: Example E: in vivo preventive test on Sphaerotheca fuliginea (powdery mildew on cucurbits). As to conditions: gherkin plants, preventive spray, evaluated 15 days after inoculation. As to the method:
The young plants of gherkin are treated by spraying the active ingredient prepared as described above. Control plants are treated only with an aqueous solution of acetone/Dimethyl sulfoxide/Tween®. After 24 hours, the plants are contaminated by spraying the leaves with an aqueous suspension of Sphaerotheca fuliginea spores.

Another series deals with Uromyces appendiculatus. The experiment in a line: Example F: in vivo preventive test on Uromyces appendiculatus (bean rust). As to conditions: bean plants, preventive spray, evaluated 11 days after inoculation. As to the method:
The young plants of bean are treated by spraying the active ingredient prepared as described above. Control plants are treated only with an aqueous solution of acetone/Dimethyl sulfoxide/Tween®. After 24 hours, the plants are contaminated by spraying the leaves with an aqueous suspension of Uromyces appendiculatus spores.

The conditions of series [1]: pH 2.7.
The subject of series [2] is Blumeria graminis f. sp. hordei. The series is described as follows: Example G: Blumeria test (barley)/preventive. In kind it is in vivo. Particulars: 500 ppm of active ingredient, preventive, evaluated 7 days after inoculation. As to the method:
(§1) Solvent: 49 parts by weight of N,N-dimethylacetamide Emulsifier: 1 part by weight of alkylaryl polyglycol ether To produce a suitable preparation of active compound, 1 part by weight of active compound or active compound combination is mixed with the stated amounts of solvent and emulsifier, and the concentrate is diluted with water to the desired concentration. To test for preventive activity, young plants are sprayed with the preparation of active compound or active compound combination at the stated rate of application. After the spray coating has been dried, the plants are dusted with spores of Blumeria graminis f. sp. hordei.

For series [3], the system named is Fusarium nivale (var. majus). The series is described as follows: Example J: Fusarium nivale (var. majus)-test (wheat)/preventive. In kind it is in vivo. Particulars: 500 ppm of active ingredient, preventive, evaluated 5 days after inoculation. As to the method:
Solvent: 49 parts by weight of N,N-dimethylacetamide
Emulsifier: 1 part by weight of alkylaryl polyglycol ether
To produce a suitable preparation of active compound, 1 part by weight of active compound or active compound combination is mixed with the stated amounts of solvent and emulsifier, and the concentrate is diluted with water to the desired concentration.
To test for preventive activity, young plants are sprayed with the preparation of active compound or active compound combination at the stated rate of application.
After the spray coating has been dried, the plants are slightly injured by using a sandblast and afterwards they are sprayed with a conidia suspension of Fusarium nivale (var. majus).
The plants are placed in the greenhouse under a translucent incubation cabinet at a temperature of approximately 10° C. and a relative atmospheric humidity of approximately 100%.
The test is evaluated 5 days after the inoculation. 0% means an efficacy which corresponds to that of the untreated control, while an efficacy of 100% means that no disease is observed.

The subject of a further series is Leptosphaeria nodorum. The series is described as follows: Example K: Leptosphaeria nodorum test (wheat)/preventive. Format: in vivo. As to conditions: 500 ppm of active ingredient, preventive, evaluated 8 days after inoculation. As to the method:
as §1, with “sprayed” for “dusted”, “a spore suspension” for “spores”, “Leptosphaeria nodorum.” for “Blumeria graminis f. sp. hordei.”

A further series concerns Phakopsora pachyrhizi. The experiment in a line: Example L: Phakopsora test (soybeans)/preventive. As to conditions: 10 ppm of active ingredient, preventive, evaluated 7 days after inoculation. In kind it is in vivo.
A further series concerns Fusarium graminearum. Format: in vivo. Particulars: 500 ppm of active ingredient; barley, preventive; evaluated 5 days after inoculation.

Marks after values point to notes of the source that are not given here.

For `OC(Cc1ccc(Cl)cn1)(Cn1cncn1)C1(Cl)CC1` (racemic) [Example I-67], the Eff. % with Botrytis cinerea (500 ppm of active ingredient) is 99%; in the series with Puccinia recondita (500 ppm of active ingredient) it was 98%; in the series with Pyrenophora teres it was 86%; in the series with Septoria tritici (500 ppm of active ingredient), 100%; in the series with Sphaerotheca fuliginea (500 ppm of active ingredient), 98%; in the series on Uromyces appendiculatus (500 ppm of active ingredient), 100%. For the same molecule, the LogP in series [1] was 2.23^[a].

For `CC(C)(Oc1ccc(Cl)cc1)C(O)(Cc1ccncc1Cl)Cn1cncn1` (racemic) [Example I-70], the Eff. % in the series on Puccinia recondita (500 ppm of active ingredient) came out at 94%; in the series on Septoria tritici (500 ppm of active ingredient), 100%; with Sphaerotheca fuliginea (500 ppm of active ingredient) it was 100%; in the series with Uromyces appendiculatus (500 ppm of active ingredient), 99%; in [2], 100%; in [3], 88%. Also, the Eff. % in the series with Leptosphaeria nodorum was 89%. Further, in series [1], the LogP was 2.84^[a].

In the case of `OC(Cc1cc(Cl)cnc1Cl)(Cn1cncn1)C1(Cl)CC1` (racemic) [Example I-83], the Eff. % in the series on Botrytis cinerea (500 ppm of active ingredient) is 100%; in the series on Puccinia recondita (500 ppm of active ingredient) it was 100%; in the series on Pyrenophora teres, 88%; with Septoria tritici (500 ppm of active ingredient), 100%; in the series with Sphaerotheca fuliginea (500 ppm of active ingredient), 100%; in the series with Uromyces appendiculatus (500 ppm of active ingredient), 100%. For the same molecule, in series [1], the LogP was 2.53^[a].

`OC(Cc1cc(F)ncc1Cl)(Cn1cncn1)C1(Cl)CC1` (racemic) [Example I-89]: the Eff. % with Botrytis cinerea (500 ppm of active ingredient), in the series with Puccinia recondita (500 ppm of active ingredient), in the series on Pyrenophora teres, in the series on Septoria tritici (500 ppm of active ingredient), with Sphaerotheca fuliginea (500 ppm of active ingredient) and with Uromyces appendiculatus (500 ppm of active ingredient) was 100% in each case. For the same molecule, in series [1], the LogP was 2.30^[a].

In the case of `OC(Cc1nccnc1Cl)(Cn1cncn1)C1(Cl)CC1` (stereo not drawn) [Example I-30], the Eff. % came to 94% with Sphaerotheca fuliginea (100 ppm of active ingredient), 100% in the series with Uromyces appendiculatus (100 ppm of active ingredient) and 75% with Phakopsora pachyrhizi. In series [1], the LogP was 1.86^[a].

Take `OC(Cc1ccc(Cl)c(Cl)n1)(Cn1cncn1)C1(Cl)CC1` (stereo not drawn) [Example I-31]: the Eff. % in the series with Puccinia recondita (100 ppm of active ingredient) was found to be 83%; in the series on Septoria tritici (100 ppm of active ingredient), 100%; with Sphaerotheca fuliginea (100 ppm of active ingredient), 90%; with Uromyces appendiculatus (100 ppm of active ingredient) it was 94%; in series [2], 100%; in series [3], 75%. In addition, in the series with Leptosphaeria nodorum, the Eff. % came to 88%. Further, the LogP in [1] was 2.66^[a].

For `OC(Cc1ccnc(Cl)c1)(Cn1cncn1)C1(F)CC1` (stereo not drawn) [Example I-33], the Eff. % in the series with Botrytis cinerea (100 ppm of active ingredient) came out at 94%; in the series with Puccinia recondita (500 ppm of active ingredient), 93%; in the series on Pyrenophora teres, 75%; in the series on Septoria tritici (500 ppm of active ingredient), 100%; with Sphaerotheca fuliginea (500 ppm of active ingredient), 100%; with Uromyces appendiculatus (500 ppm of active ingredient), 100%. Besides, the Eff. % in series [2] was determined as 100%; with Fusarium graminearum it was 100%; in [3] it was 93%; in the series on Leptosphaeria nodorum it was 86%. The LogP in series [1] is 1.44^[a].

Consider `CC(CF)(CF)C(O)(Cc1ccnc(Cl)c1)Cn1cncn1` (stereo not drawn) [Example I-36], for which the Eff. % came out at 97% in the series on Puccinia recondita (500 ppm of active ingredient); 88% in the series on Pyrenophora teres; 100% with Septoria tritici (500 ppm of active ingredient); 100% with Sphaerotheca fuliginea (500 ppm of active ingredient); 100% in the series on Uromyces appendiculatus (500 ppm of active ingredient); 100% in [2]. In addition, the Eff. % in the series with Fusarium graminearum was determined as 94%. The LogP in series [1] was 1.66^[a].

On to `OC(Cc1ccncn1)(Cn1cncn1)C1(Cl)CC1` (stereo not drawn) [Example I-50], for which the Eff. % is 100% with Botrytis cinerea (500 ppm of active ingredient); 94% in the series on Puccinia recondita (500 ppm of active ingredient); 79% in the series on Pyrenophora teres; 100% with Septoria tritici (500 ppm of active ingredient); 100% with Sphaerotheca fuliginea (500 ppm of active ingredient); 100% in the series with Uromyces appendiculatus (500 ppm of active ingredient). Moreover, in series [1], the LogP is 1.10^[a].

As to `OC(Cc1ncnc(Cl)c1Cl)(Cn1cncn1)C1(Cl)CC1` (stereo not drawn) [Example I-57], the Eff. % in the series on Puccinia recondita (500 ppm of active ingredient) is reported as 86%; in the series on Pyrenophora teres, 88%; in the series on Septoria tritici (500 ppm of active ingredient), 92%; with Sphaerotheca fuliginea (500 ppm of active ingredient), 95%; with Uromyces appendiculatus (500 ppm of active ingredient), 96%; in [2] it was 100%. The Eff. % in series [3] worked out at 71%. In addition, in series [1], the LogP was 2.28^[a].

These data come from patent US9822099B2, “Triazole derivatives” (priority 2013, dated 2017).
